In the supplement of paper PMC10307832 one finds relative viability data, which are given here for eight cell lines.

Common to all, as to experiment: relative viability (nuclei count vs DMSO), 5 days (fraction); higher = more cells survive
Compound in the test “Entinostat + Vorinostat”: Nc1ccccc1NC(=O)c1ccc(CNC(=O)OCc2cccnc2)cc1 [Entinostat] + O=C(CCCCCCC(=O)Nc1ccccc1)NO [Vorinostat] (partner 1 µM)
The essentials: (§1)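 Relative viability is defined as nuclei in treated wells over nuclei in vehicle wells. Duplicate plates were run and medians reported. Lung cancer cell lines in 1536-well plates were dosed by pin tool one day after seeding, with one drug or with a fixed anchor-drug dose plus five library-drug doses (not always all listed) in √10 steps, and nuclei were counted after 5 days.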

Compound in the test “SGI-1776 + OSI-027”: CN1CCC(CNc2ccc3ncc(-c4cccc(OC(F)(F)F)c4)n3n2)CC1 [SGI-1776] + COc1cccc2cc(-c3nc([C@H]4CC[C@H](C(=O)O)CC4)n4ncnc(N)c34)[nH]c12 [OSI-027] (partner 0.5 µM)
The essentials:
as §1

Compound in the test “Entinostat + Pictilisib”: Nc1ccccc1NC(=O)c1ccc(CNC(=O)OCc2cccnc2)cc1 [Entinostat] + CS(=O)(=O)N1CCN(Cc2cc3nc(-c4cccc5[nH]ncc45)nc(N4CCOCC4)c3s2)CC1 [Pictilisib] (partner 1 µM)
The essentials: as §1

Compound in test [1]: C1COCCN1C2=NC(=NC3=C2OC4=C3C=CC=N4)C5=CC(=CC=C5)NC(=O)C6=CN=C(C=C6)N + Cc1cc(Nc2cc(N3CCN(C)CC3)nc(Sc3ccc(NC(=O)C4CC4)cc3)n2)n[nH]1 [Tozasertib] (partner 0.1 µM)
In short, it runs like this: as §1

For HCC-15, the relative viability is 0.81 with Entinostat + Vorinostat (first compound 0.02 µM); 0.807 with Entinostat + Vorinostat (first compound 0.06325 µM); 0.636 in the test with Entinostat + Vorinostat (first compound 0.2 µM); 0.51 with Entinostat + Vorinostat (first compound 0.6325 µM); 0.266 with Entinostat + Vorinostat (first compound 2 µM); 0.655 in the test with SGI-1776 + OSI-027 (first compound 0.08 µM). For the same cell line, the relative viability was 0.651 in the test with SGI-1776 + OSI-027 (first compound 0.8 µM); 0.559 with SGI-1776 + OSI-027 (first compound 2.53 µM); 0.437 with SGI-1776 + OSI-027 (first compound 8 µM); 0.714 in the test with Entinostat + Pictilisib (first compound 0.02 µM); 0.663 with Entinostat + Pictilisib (first compound 0.06325 µM); 0.626 with Entinostat + Pictilisib (first compound 0.2 µM). In addition, the relative viability with Entinostat + Pictilisib (first compound 0.6325 µM) was found to be 0.188; with Entinostat + Pictilisib (first compound 2 µM) it was 0.266; in test [1] (first compound 0.02 µM), 0.462; in test [1] (first compound 0.06325 µM), 0.438; in test [1] (first compound 0.2 µM) it was 0.19; in test [1] (first compound 0.6325 µM), 0.205. In test [1] (first compound 2 µM), the relative viability was 0.208.

Consider HCC-44, for which the relative viability stood at 1.08 in the test with Entinostat + Vorinostat (first compound 0.02 µM); 0.976 with Entinostat + Vorinostat (first compound 0.06325 µM); 0.938 in the test with Entinostat + Vorinostat (first compound 0.2 µM); 0.879 with Entinostat + Vorinostat (first compound 0.6325 µM); 0.653 with Entinostat + Vorinostat (first compound 2 µM); 0.672 with SGI-1776 + OSI-027 (first compound 0.08 µM). Besides, the relative viability with SGI-1776 + OSI-027 (first compound 0.8 µM) came to 0.493; with SGI-1776 + OSI-027 (first compound 2.53 µM), 0.407; with SGI-1776 + OSI-027 (first compound 8 µM) it was 0.28; in the test with Entinostat + Pictilisib (first compound 0.02 µM) it was 0.641; with Entinostat + Pictilisib (first compound 0.06325 µM), 0.644; in the test with Entinostat + Pictilisib (first compound 0.2 µM), 0.392. Also, the relative viability in the test with Entinostat + Pictilisib (first compound 0.6325 µM) stood at 0.176; with Entinostat + Pictilisib (first compound 2 µM), 0.417; in test [1] (first compound 0.02 µM) it was 0.882; in test [1] (first compound 0.06325 µM) it was 1.04; in test [1] (first compound 0.2 µM) it was 0.829; in test [1] (first compound 0.6325 µM), 0.766. In test [1] (first compound 2 µM), the relative viability is 0.546.

As for HCC-78, the relative viability in the test with Entinostat + Vorinostat (first compound 0.02 µM) is 0.44; with Entinostat + Vorinostat (first compound 0.06325 µM), 0.435; with Entinostat + Vorinostat (first compound 0.2 µM), 0.441; with Entinostat + Vorinostat (first compound 0.6325 µM) it was 0.33; with Entinostat + Vorinostat (first compound 2 µM), 0.281; with SGI-1776 + OSI-027 (first compound 0.08 µM), 0.407. Moreover, the relative viability is 0.418 with SGI-1776 + OSI-027 (first compound 0.8 µM); 0.385 in the test with SGI-1776 + OSI-027 (first compound 2.53 µM); 0.398 in the test with SGI-1776 + OSI-027 (first compound 8 µM); 0.212 with Entinostat + Pictilisib (first compound 0.02 µM); 0.194 in the test with Entinostat + Pictilisib (first compound 0.06325 µM); 0.178 with Entinostat + Pictilisib (first compound 0.2 µM). Moreover, the relative viability with Entinostat + Pictilisib (first compound 0.6325 µM) turned out to be 0.108; in the test with Entinostat + Pictilisib (first compound 2 µM), 0.128; in test [1] (first compound 0.02 µM), 0.394; in test [1] (first compound 0.06325 µM) it was 0.427; in test [1] (first compound 0.2 µM), 0.432; in test [1] (first compound 0.6325 µM), 0.367. The relative viability in test [1] (first compound 2 µM) came out at 0.24.

HCC-366: the relative viability is 0.338 with Entinostat + Vorinostat (first compound 0.02 µM); 0.239 with Entinostat + Vorinostat (first compound 0.06325 µM); 0.209 with Entinostat + Vorinostat (first compound 0.2 µM); 0.0651 with Entinostat + Vorinostat (first compound 0.6325 µM); 0.0386 with Entinostat + Vorinostat (first compound 2 µM); 0.837 with SGI-1776 + OSI-027 (first compound 0.08 µM). In addition, the relative viability with SGI-1776 + OSI-027 (first compound 0.8 µM) was 0.866; with SGI-1776 + OSI-027 (first compound 2.53 µM), 1.02; in the test with SGI-1776 + OSI-027 (first compound 8 µM) it was 0.667; in the test with Entinostat + Pictilisib (first compound 0.02 µM), 0.163; with Entinostat + Pictilisib (first compound 0.06325 µM), 0.232; in the test with Entinostat + Pictilisib (first compound 0.2 µM), 0.168. Besides, the relative viability with Entinostat + Pictilisib (first compound 0.6325 µM) came out at 0.194; in the test with Entinostat + Pictilisib (first compound 2 µM), 0.082; in test [1] (first compound 0.02 µM) it was 0.0782; in test [1] (first compound 0.06325 µM), 0.144; in test [1] (first compound 0.2 µM) it was 0.0599; in test [1] (first compound 0.6325 µM) it was 0.0546. The relative viability in test [1] (first compound 2 µM) turned out to be 0.0428.

For the cell line HCC-827, the relative viability with Entinostat + Vorinostat (first compound 0.02 µM) was 0.988; with Entinostat + Vorinostat (first compound 0.06325 µM), 0.879; with Entinostat + Vorinostat (first compound 0.2 µM) it was 0.631; with Entinostat + Vorinostat (first compound 0.6325 µM), 0.62; in the test with Entinostat + Vorinostat (first compound 2 µM) it was 0.287; with SGI-1776 + OSI-027 (first compound 0.08 µM), 0.804. Besides, the relative viability with SGI-1776 + OSI-027 (first compound 0.8 µM) turned out to be 0.843; with SGI-1776 + OSI-027 (first compound 2.53 µM), 0.793; with SGI-1776 + OSI-027 (first compound 8 µM), 0.602; with Entinostat + Pictilisib (first compound 0.02 µM) it was 1.02; with Entinostat + Pictilisib (first compound 0.06325 µM), 0.774; with Entinostat + Pictilisib (first compound 0.2 µM), 0.683. The relative viability with Entinostat + Pictilisib (first compound 0.6325 µM) amounted to 0.754; with Entinostat + Pictilisib (first compound 2 µM) it was 0.478; in test [1] (first compound 0.02 µM), 0.415; in test [1] (first compound 0.06325 µM), 0.435; in test [1] (first compound 0.2 µM), 0.441; in test [1] (first compound 0.6325 µM), 0.438. Also, the relative viability in test [1] (first compound 2 µM) is 0.343.

With HOP-62, the relative viability came out at 0.565 with Entinostat + Vorinostat (first compound 0.02 µM); 0.534 with Entinostat + Vorinostat (first compound 0.06325 µM); 0.494 with Entinostat + Vorinostat (first compound 0.2 µM); 0.228 with Entinostat + Vorinostat (first compound 0.6325 µM); 0.132 in the test with Entinostat + Vorinostat (first compound 2 µM); 0.882 with SGI-1776 + OSI-027 (first compound 0.08 µM). Besides, the relative viability with SGI-1776 + OSI-027 (first compound 0.8 µM) is 0.866; in the test with SGI-1776 + OSI-027 (first compound 2.53 µM), 0.802; with SGI-1776 + OSI-027 (first compound 8 µM), 0.81; with Entinostat + Pictilisib (first compound 0.02 µM) it was 0.578; with Entinostat + Pictilisib (first compound 0.06325 µM) it was 0.743; with Entinostat + Pictilisib (first compound 0.2 µM), 0.603. Also, the relative viability with Entinostat + Pictilisib (first compound 0.6325 µM) came to 0.139; in the test with Entinostat + Pictilisib (first compound 2 µM), 0.0745; in test [1] (first compound 0.02 µM), 0.358; in test [1] (first compound 0.06325 µM), 0.396; in test [1] (first compound 0.2 µM), 0.337; in test [1] (first compound 0.6325 µM), 0.312. Further, in test [1] (first compound 2 µM), the relative viability is 0.225.

As for IA-LM, the relative viability was 0.972 with Entinostat + Vorinostat (first compound 0.02 µM); 0.997 with Entinostat + Vorinostat (first compound 0.06325 µM); 1.13 in the test with Entinostat + Vorinostat (first compound 0.2 µM); 0.863 with Entinostat + Vorinostat (first compound 0.6325 µM); 0.682 with Entinostat + Vorinostat (first compound 2 µM); 0.391 with Entinostat + Pictilisib (first compound 0.02 µM). Further, the relative viability in the test with Entinostat + Pictilisib (first compound 0.06325 µM) was found to be 0.43; with Entinostat + Pictilisib (first compound 0.2 µM), 0.508; with Entinostat + Pictilisib (first compound 0.6325 µM), 0.311; with Entinostat + Pictilisib (first compound 2 µM), 0.133.

Take LC-2-ad: the relative viability turned out to be 0.666 with Entinostat + Vorinostat (first compound 0.02 µM); 0.686 with Entinostat + Vorinostat (first compound 0.06325 µM); 0.695 with Entinostat + Vorinostat (first compound 0.2 µM); 0.356 with Entinostat + Vorinostat (first compound 0.6325 µM); 0.257 with Entinostat + Vorinostat (first compound 2 µM); 0.918 with SGI-1776 + OSI-027 (first compound 0.08 µM). Also, the relative viability with SGI-1776 + OSI-027 (first compound 0.8 µM) stood at 0.806; with SGI-1776 + OSI-027 (first compound 2.53 µM), 0.973; in the test with SGI-1776 + OSI-027 (first compound 8 µM) it was 0.548; with Entinostat + Pictilisib (first compound 0.02 µM) it was 0.44; in the test with Entinostat + Pictilisib (first compound 0.06325 µM) it was 0.5; with Entinostat + Pictilisib (first compound 0.2 µM) it was 0.431. Further, the relative viability with Entinostat + Pictilisib (first compound 0.6325 µM) was determined as 0.126; in the test with Entinostat + Pictilisib (first compound 2 µM), 0.124; in test [1] (first compound 0.02 µM) it was 0.428; in test [1] (first compound 0.06325 µM) it was 0.499; in test [1] (first compound 0.2 µM) it was 0.46; in test [1] (first compound 0.6325 µM), 0.473. Moreover, the relative viability in test [1] (first compound 2 µM) worked out at 0.392.
